Measurements: ChEMBL document CHEMBL1201862, “PubChem BioAssay data set” (2004)
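All cell lines were grown in 96-well plates and treated with compound for 48 hours. GI50 = concentration required for 50% inhibition of growth.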 The source made the active and inactive calls. Rule as the data show it: active = GI50 up to about 1.1 µM and inactive = higher.

Key:
Experiment in all cases: NCI tumour cell line growth inhibition, 48 h
SK-MEL-5 = system: SK-MEL-5
RXF 393 = system: RXF 393
U-251 = system: U-251
NCI-H522 = system: NCI-H522
SK-OV-3 = system: SK-OV-3
HOP-92 = system: HOP-92
SR = system: SR
Hs-578T = system: Hs-578T
MOLT-4 = system: MOLT-4
SW-620 = system: SW-620
BT-549 = system: BT-549
CCRF-CEM = system: CCRF-CEM
NCI-H460 = system: NCI-H460
COLO 205 = system: COLO 205
HL-60 = system: HL-60
HOP-62 = system: HOP-62
SF-268 = system: SF-268
OVCAR-3 = system: OVCAR-3
A498 = system: A498
EKVX = system: EKVX
RPMI-8226 = system: RPMI-8226
HCT-15 = system: HCT-15
MDA-N = system: MDA-N
SN12C = system: SN12C
HT-29 = system: HT-29
Malme-3M = system: Malme-3M
T47D = system: T47D
UO-31 = system: UO-31
CAKI-1 = system: CAKI-1
IGROV-1 = system: IGROV-1
SK-MEL-28 = system: SK-MEL-28
MCF7 = system: MCF7
SF-295 = system: SF-295
MDA-MB-435 = system: MDA-MB-435
A549 = system: A549
TK-10 = system: TK-10
786-0 = system: 786-0
DU-145 = system: DU-145
K562 = system: K562
ACHN = system: ACHN
UACC-257 = system: UACC-257
NCI-H23 = system: NCI-H23
SNB-19 = system: SNB-19
LOX IMVI = system: LOX IMVI
M14 = system: M14
KM12 = system: KM12
HCC 2998 = system: HCC 2998
MDA-MB-231 = system: MDA-MB-231
OVCAR-8 = system: OVCAR-8
NCI/ADR-RES = system: NCI/ADR-RES
UACC-62 = system: UACC-62
OVCAR-5 = system: OVCAR-5
HCT-116 = system: HCT-116
NCI-H226 = system: NCI-H226
PC-3 = system: PC-3
SK-MEL-2 = system: SK-MEL-2
OVCAR-4 = system: OVCAR-4
SNB-75 = system: SNB-75
SF-539 = system: SF-539

O=C(Nc1ccccc1)N(CCN(Cc1ccccc1)C(=O)Nc1ccccc1)CCN(Nc1ccccc1)C(=O)Nc1ccccc1
GI50 (SK-MEL-5): > 100 µM (inactive)
GI50 (RXF 393): > 100 µM (inactive)
GI50 (U-251): > 100 µM (inactive)
GI50 (NCI-H522): > 100 µM (inactive)
GI50 (SK-OV-3): > 100 µM (inactive)
GI50 (HOP-92): > 100 µM (inactive)
GI50 (SR): > 100 µM (inactive)
GI50 (Hs-578T): > 100 µM (inactive)
GI50 (MOLT-4): > 100 µM (inactive)
GI50 (SW-620): > 100 µM (inactive)
GI50 (BT-549): > 100 µM (inactive)
GI50 (CCRF-CEM): > 100 µM (inactive)
GI50 (NCI-H460): > 100 µM (inactive)
GI50 (COLO 205): > 100 µM (inactive)
GI50 (HL-60): > 100 µM (inactive)
GI50 (HOP-62): > 100 µM (inactive)
GI50 (SF-268): > 100 µM (inactive)
GI50 (OVCAR-3): > 100 µM (inactive)
GI50 (A498): > 100 µM (inactive)
GI50 (EKVX): > 100 µM (inactive)
GI50 (RPMI-8226): > 100 µM (inactive)
GI50 (HCT-15): > 100 µM
GI50 (MDA-N): > 100 µM (inactive)
GI50 (SN12C): > 100 µM (inactive)
GI50 (HT-29): > 100 µM (inactive)
GI50 (Malme-3M): > 100 µM (inactive)
GI50 (T47D): > 100 µM (inactive)
GI50 (UO-31): > 100 µM (inactive)
GI50 (CAKI-1): > 100 µM (inactive)
GI50 (IGROV-1): > 100 µM (inactive)
GI50 (SK-MEL-28): > 100 µM (inactive)
GI50 (MCF7): > 100 µM (inactive)
GI50 (SF-295): > 100 µM (inactive)
GI50 (MDA-MB-435): > 100 µM (inactive)
GI50 (A549): > 100 µM (inactive)
GI50 (TK-10): > 100 µM (inactive)
GI50 (786-0): > 100 µM (inactive)
GI50 (DU-145): > 100 µM (inactive)
GI50 (K562): > 100 µM (inactive)
GI50 (ACHN): > 100 µM (inactive)
GI50 (UACC-257): > 100 µM (inactive)
GI50 (NCI-H23): > 100 µM (inactive)
GI50 (SNB-19): > 100 µM (inactive)
GI50 (LOX IMVI): > 100 µM (inactive)
GI50 (M14): 92.9 µM (inactive)
GI50 (KM12): > 100 µM (inactive)
GI50 (HCC 2998): > 100 µM (inactive)
GI50 (MDA-MB-231): > 100 µM (inactive)
GI50 (OVCAR-8): > 100 µM (inactive)
GI50 (NCI/ADR-RES): > 100 µM (inactive)
GI50 (UACC-62): > 100 µM (inactive)
GI50 (OVCAR-5): > 100 µM (inactive)
GI50 (HCT-116): > 100 µM (inactive)
GI50 (NCI-H226): > 100 µM (inactive)
GI50 (PC-3): > 100 µM (inactive)
GI50 (SK-MEL-2): > 100 µM (inactive)
GI50 (OVCAR-4): > 100 µM (inactive)
GI50 (SNB-75): > 100 µM (inactive)

CC[C@@H]([C@H](O)c1ccccc1Cl)[N+](=O)[O-]
GI50 (SK-MEL-5): > 100 µM (inactive)
GI50 (RXF 393): > 100 µM (inactive)
GI50 (U-251): > 100 µM (inactive)
GI50 (NCI-H522): 90.4 µM (inactive)
GI50 (SK-OV-3): > 100 µM (inactive)
GI50 (HOP-92): > 100 µM (inactive)
GI50 (SR): 0.324 µM (active)
GI50 (Hs-578T): > 100 µM (inactive)
GI50 (SW-620): 42.9 µM (inactive)
GI50 (BT-549): > 100 µM (inactive)
GI50 (CCRF-CEM): 19.2 µM (inactive)
GI50 (NCI-H460): > 100 µM (inactive)
GI50 (COLO 205): > 100 µM (inactive)
GI50 (HL-60): 7.82 µM (inactive)
GI50 (HOP-62): 54.6 µM (inactive)
GI50 (SF-268): > 100 µM (inactive)
GI50 (OVCAR-3): > 100 µM (inactive)
GI50 (A498): > 100 µM (inactive)
GI50 (EKVX): > 100 µM (inactive)
GI50 (RPMI-8226): 91.8 µM (inactive)
GI50 (HCT-15): 1.33 µM
GI50 (MDA-N): 2.35 µM (inactive)
GI50 (SN12C): > 100 µM (inactive)
GI50 (HT-29): > 100 µM (inactive)
GI50 (T47D): > 100 µM (inactive)
GI50 (UO-31): > 100 µM (inactive)
GI50 (CAKI-1): > 100 µM (inactive)
GI50 (IGROV-1): > 100 µM (inactive)
GI50 (SF-539): 59 µM (inactive)
GI50 (SK-MEL-28): > 100 µM (inactive)
GI50 (MCF7): 16.4 µM (inactive)
GI50 (SF-295): > 100 µM (inactive)
GI50 (MDA-MB-435): 25.8 µM (inactive)
GI50 (A549): > 100 µM (inactive)
GI50 (TK-10): > 100 µM (inactive)
GI50 (786-0): > 100 µM (inactive)
GI50 (DU-145): > 100 µM (inactive)
GI50 (ACHN): > 100 µM (inactive)
GI50 (UACC-257): > 100 µM (inactive)
GI50 (NCI-H23): > 100 µM (inactive)
GI50 (SNB-19): > 100 µM (inactive)
GI50 (LOX IMVI): > 100 µM (inactive)
GI50 (M14): > 100 µM (inactive)
GI50 (KM12): > 100 µM (inactive)
GI50 (HCC 2998): > 100 µM (inactive)
GI50 (MDA-MB-231): > 100 µM (inactive)
GI50 (OVCAR-8): > 100 µM (inactive)
GI50 (NCI/ADR-RES): > 100 µM (inactive)
GI50 (UACC-62): > 100 µM (inactive)
GI50 (OVCAR-5): > 100 µM (inactive)
GI50 (HCT-116): 4.25 µM (inactive)
GI50 (NCI-H226): > 100 µM (inactive)
GI50 (PC-3): 61.4 µM (inactive)
GI50 (SK-MEL-2): > 100 µM (inactive)
GI50 (OVCAR-4): > 100 µM (inactive)
GI50 (SNB-75): 65.6 µM (inactive)
